How the values were obtained:
H460TaxR = test: Cell viability assay (sulforhodamine B); format: cell-based, human; conditions: for EC50: Homo sapiens, H460/TaxR
Description: (§1) All biological reagents and solvents were obtained from commercial suppliers and used as recommended. The human NSCLC cell line H460 and P-gp-overexpressing drug-resistant cell line H460TaxR were cultured in RPMI-1640 medium supplemented with 10% fetal bovine serum, 100 units/ml penicillin and […] streptomycin. The NHFB cell line NHFB was cultured in DMEM with the same supplements. All cells were maintained in a 37 °C incubator with 95% humidity and 5% CO2.
(§2) The cell viability was determined using the sulforhodamine B assay.[64] In brief, cells (4000 cells in 100 μl medium) were seeded in 96-well culture plates and incubated for 24 h. The cells were treated with the compounds or with an equal volume (0.1%) of DMSO for 72 h. The cell viability was calculated using the following formula: cell viability=Atreatment/Acontrol. The EC50 values were determined using the Sigma Plot 10.0 software package (Systat Software Inc., San Jose, CA, USA).

H460 = test: Cell viability assay (sulforhodamine B); format: cell-based, human; conditions: H460 cells, 72 h
Description: as §1, §2

EGFR(G719C) = target: T1, EGFR(G719C) (Homo sapiens, UniProt P00533, G719C); test: KINOMEscan; format: binding; conditions: read-out: % Ctrl
T1 construct: purchased DiscoveRx KINOMEscan

KIT(V559D) = target: T2, KIT(V559D) (Homo sapiens, UniProt P10721, V559D); test: KINOMEscan; format: binding; conditions: read-out: % Ctrl
T2 construct: purchased DiscoveRx KINOMEscan

LRRK2(G2019S) = target: T3, LRRK2(G2019S) (Homo sapiens, UniProt Q5S007, G2019S); test: KINOMEscan; format: binding; conditions: read-out: % Ctrl
T3 construct: purchased DiscoveRx KINOMEscan

[1] = toxicity in xenografted mice; conditions: TBPT 30 or 60 mg/kg x5, PTX 10 mg/kg x4, i.v.
Description: (§3) Five injections of vehicle and TBPT (30 or 60 mg/kg) were administered intravenously at days 1, 3, 5, 7 and 9 (arrows). Four injections of PTX (10 mg/kg) were administered intravenously at days 1, 3, 5 and 7. (a) The tumor volume was measured every other day. When the tumor volume in the solvent-treated group exceeded 1500 mm^3, the experiment was terminated. (b) Blood biochemical and hematological analyses. (c) The body weights of the mice were monitored every other day during the experiments. *P<0.05, Student's t-test with day 0, N=5
(§4) Figure 3 Histopathological examination of the major organs from TBPT or PTX-treated mouse tumor at the end of the experiments. The cross-sections of organs were stained with hematoxylin–eosin. […] The scale bars represent 50 μm and are uniform in each column
(§5) H460 and H460TaxR cells (5 × 10^6 cells in 100 μl PBS) were injected subcutaneously into the dorsal flank of each mouse. When the tumors reached volumes of 100 mm^3, the mice were divided randomly into four groups. The mice were treated every other day five times with intravenous injections of (1) vehicle (the solvent of TBPT: 60% PBS, 8% Cremophor EL, 8% EtOH, 12% poly propylene glycol and 12% PEG-400), (2) TBPT (30 mg/kg) or (3) TBPT (60 mg/kg). Another group was treated with PTX (10 mg/kg) every other day four times as the positive control. The tumor dimensions and body weights were measured every other day. The tumor volume was calculated according to a standard formula: volume=width^2 × length/2. The experiment was terminated and the mice were killed when the tumor volumes in the solvent-treated group exceeded 1500 mm^3. The mouse organs and blood were collected and used for hematoxylin–eosin staining and serum chemistry assay. TGI rates were assessed using the following formula: TGI=1− (Tt−T0)/(Ct−C0) × 100%. Tt and T0 indicate the tumor volumes of the treated group at days t and 0. Ct and C0 indicate the tumor volumes of the control group at days t and 0, respectively.

RET(M918T) = target: T4, RET(M918T) (Homo sapiens, UniProt P07949, M918T); test: KINOMEscan; format: binding; conditions: read-out: % Ctrl
T4 construct: purchased DiscoveRx KINOMEscan

caspases 8, 9 and 3/7 = test: Caspases activity assay in H460TaxR cells; format: cell-based, human; conditions: 2 μM, 6, 12 and 24 h
Description: The activities of caspases 8, 9, and 3/7 in H460TaxR and H460 cells were examined via a fluorescence-based assay using Caspase-Glo 8, Caspase-Glo 9 Assay kits and Apo-ONE Homogeneous Caspase-3/7 Assay Kit (Promega, Madison, WI, USA). Cells (1 × 10^6 cells in 10 ml medium) were seeded in 10-cm dishes. After 24 h, the cells were treated with TBPT (2 μM) or DMSO for 6, 12 and 24 h. Then, the cells were washed in PBS and collected. Cell lysates were prepared conventionally in RIPA lysis buffer. Protein concentrations were determined using the BCA protein assay. Equal amounts (10 μg) of total protein of samples were added to 96-well culture plates containing 100 μl caspases 8, 9 and 3/7 activity working solution. After the samples were incubated for 1 h at RT, the fluorescence of each well was determined at 499 nm with an emission wavelength of 521 nm using a multimode plate reader (Victor X2, Perkin Elmer, Boston, MA, USA). The fluorescence intensities are proportional to the activities of caspases 8, 9 and 3/7.

[2] = target: T5, ABL1(F317I)-phosphorylated (Homo sapiens, UniProt P00519, F317I); test: KINOMEscan; format: binding; conditions: read-out: % Ctrl
T5 construct: purchased DiscoveRx KINOMEscan

RET(V804L) = target: T6, RET(V804L) (Homo sapiens, UniProt P07949, V804L); test: KINOMEscan; format: binding; conditions: read-out: % Ctrl
T6 construct: purchased DiscoveRx KINOMEscan

[3] = mouse, in vivo
Description: as §3, §4, §5

EGFR(T790M) = target: T7, EGFR(T790M) (Homo sapiens, UniProt P00533, T790M); test: KINOMEscan; format: binding; conditions: read-out: % Ctrl
T7 construct: purchased DiscoveRx KINOMEscan

EGFR(L747-T751del,Sins) = test: KINOMEscan; format: binding, human
PKNB(M.tuberculosis) = target: T8, PKNB(M.tuberculosis) (Mycobacterium tuberculosis, UniProt P9WI81); test: KINOMEscan; format: binding; conditions: read-out: % Ctrl
T8 construct: purchased DiscoveRx KINOMEscan

FLT3(ITD) = test: KINOMEscan; format: binding, human
Description: The binding assay for 442 non-mutant kinases was performed using KINOMEscan (DiscoveRx Corporation, Fremont, CA, USA) as reported previously.[58], [59] TBPT was screened at concentrations of 5 and 10 μM to identify the affected kinases. KINOMEscan is based on a competition reaction that quantitatively measures the ability of a test compound to compete with an active site-directed ligand for binding to the kinase active site. […] After the assay plates were incubated with shaking for 1 h, the liganded beads were washed with washing buffer (1 × PBS and 0.05% Tween 20). Then, the beads were re-suspended in elution buffer (1 × PBS, 0.05% Tween 20, and 0.5 μM ligand) and incubated with shaking for 30 min. The kinase concentration in the eluates was measured via qPCR. The results are represented as ‘%Ctrl', which was calculated using the following formula: (test compound signal–positive control signal)/(DMSO signal–positive control signal) × 100%. A lower % Ctrl indicates stronger binding to the kinase active site.

T3 sequence (Q5S007 whole entry G2019S): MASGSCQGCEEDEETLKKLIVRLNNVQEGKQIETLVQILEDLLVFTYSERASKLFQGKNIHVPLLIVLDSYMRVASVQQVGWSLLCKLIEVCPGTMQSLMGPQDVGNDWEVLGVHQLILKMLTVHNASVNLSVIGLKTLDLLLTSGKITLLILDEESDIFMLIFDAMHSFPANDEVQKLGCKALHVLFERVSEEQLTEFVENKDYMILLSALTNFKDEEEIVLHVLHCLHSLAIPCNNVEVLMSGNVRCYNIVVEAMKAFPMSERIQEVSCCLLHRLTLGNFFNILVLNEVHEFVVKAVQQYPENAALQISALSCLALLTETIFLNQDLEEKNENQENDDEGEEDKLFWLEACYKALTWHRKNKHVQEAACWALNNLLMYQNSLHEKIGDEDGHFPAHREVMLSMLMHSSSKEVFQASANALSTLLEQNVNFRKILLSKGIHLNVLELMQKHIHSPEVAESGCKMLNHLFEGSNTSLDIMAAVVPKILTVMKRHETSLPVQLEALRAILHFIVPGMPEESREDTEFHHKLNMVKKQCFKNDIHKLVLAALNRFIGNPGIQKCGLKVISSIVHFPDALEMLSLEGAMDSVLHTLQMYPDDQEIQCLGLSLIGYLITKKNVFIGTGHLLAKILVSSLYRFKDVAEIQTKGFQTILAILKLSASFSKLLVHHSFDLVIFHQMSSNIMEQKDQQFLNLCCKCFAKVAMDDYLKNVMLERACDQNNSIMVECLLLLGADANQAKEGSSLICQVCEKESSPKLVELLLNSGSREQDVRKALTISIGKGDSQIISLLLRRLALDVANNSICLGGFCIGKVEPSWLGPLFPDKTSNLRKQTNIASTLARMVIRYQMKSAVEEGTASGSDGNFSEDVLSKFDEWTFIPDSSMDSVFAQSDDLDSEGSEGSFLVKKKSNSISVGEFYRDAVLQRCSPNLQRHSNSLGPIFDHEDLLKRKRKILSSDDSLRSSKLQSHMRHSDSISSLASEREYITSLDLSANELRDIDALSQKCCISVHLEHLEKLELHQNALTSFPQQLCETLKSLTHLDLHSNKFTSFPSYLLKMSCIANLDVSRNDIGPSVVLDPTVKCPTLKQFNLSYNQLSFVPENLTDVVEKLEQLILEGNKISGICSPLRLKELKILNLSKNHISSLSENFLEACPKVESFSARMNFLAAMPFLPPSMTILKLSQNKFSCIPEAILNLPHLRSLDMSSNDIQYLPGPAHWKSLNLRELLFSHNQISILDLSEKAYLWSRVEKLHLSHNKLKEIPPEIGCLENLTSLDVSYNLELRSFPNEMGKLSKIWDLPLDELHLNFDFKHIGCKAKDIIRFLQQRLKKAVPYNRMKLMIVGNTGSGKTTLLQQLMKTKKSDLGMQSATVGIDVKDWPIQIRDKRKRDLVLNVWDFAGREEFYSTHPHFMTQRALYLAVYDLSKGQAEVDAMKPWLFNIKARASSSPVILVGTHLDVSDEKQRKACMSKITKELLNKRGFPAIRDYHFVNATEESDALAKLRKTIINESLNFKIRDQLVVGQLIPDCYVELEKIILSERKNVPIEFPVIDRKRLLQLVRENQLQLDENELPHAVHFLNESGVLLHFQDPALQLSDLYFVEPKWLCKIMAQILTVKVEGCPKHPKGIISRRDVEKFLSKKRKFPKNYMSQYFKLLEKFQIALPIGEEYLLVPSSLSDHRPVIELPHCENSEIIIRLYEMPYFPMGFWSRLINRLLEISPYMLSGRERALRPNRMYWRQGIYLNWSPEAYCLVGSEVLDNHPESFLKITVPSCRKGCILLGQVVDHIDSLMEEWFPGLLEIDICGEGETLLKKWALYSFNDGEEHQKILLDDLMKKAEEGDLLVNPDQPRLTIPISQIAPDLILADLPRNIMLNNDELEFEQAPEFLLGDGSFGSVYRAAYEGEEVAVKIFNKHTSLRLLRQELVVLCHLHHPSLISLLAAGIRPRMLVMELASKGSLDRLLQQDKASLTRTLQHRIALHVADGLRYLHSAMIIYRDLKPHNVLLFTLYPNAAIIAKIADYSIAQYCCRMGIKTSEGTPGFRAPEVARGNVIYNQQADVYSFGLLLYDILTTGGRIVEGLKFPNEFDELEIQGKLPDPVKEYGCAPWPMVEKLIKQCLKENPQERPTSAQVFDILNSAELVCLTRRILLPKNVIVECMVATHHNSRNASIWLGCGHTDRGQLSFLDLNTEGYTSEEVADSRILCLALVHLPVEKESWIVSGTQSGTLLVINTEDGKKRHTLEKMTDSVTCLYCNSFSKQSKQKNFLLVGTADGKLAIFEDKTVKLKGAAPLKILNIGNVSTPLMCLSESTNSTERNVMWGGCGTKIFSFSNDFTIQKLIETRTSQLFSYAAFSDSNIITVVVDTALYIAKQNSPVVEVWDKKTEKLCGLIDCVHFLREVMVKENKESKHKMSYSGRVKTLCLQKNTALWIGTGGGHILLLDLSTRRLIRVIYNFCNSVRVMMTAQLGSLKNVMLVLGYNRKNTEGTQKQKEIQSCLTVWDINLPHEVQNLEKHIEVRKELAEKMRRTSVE
T1 sequence (P00533 25-1210 G719C): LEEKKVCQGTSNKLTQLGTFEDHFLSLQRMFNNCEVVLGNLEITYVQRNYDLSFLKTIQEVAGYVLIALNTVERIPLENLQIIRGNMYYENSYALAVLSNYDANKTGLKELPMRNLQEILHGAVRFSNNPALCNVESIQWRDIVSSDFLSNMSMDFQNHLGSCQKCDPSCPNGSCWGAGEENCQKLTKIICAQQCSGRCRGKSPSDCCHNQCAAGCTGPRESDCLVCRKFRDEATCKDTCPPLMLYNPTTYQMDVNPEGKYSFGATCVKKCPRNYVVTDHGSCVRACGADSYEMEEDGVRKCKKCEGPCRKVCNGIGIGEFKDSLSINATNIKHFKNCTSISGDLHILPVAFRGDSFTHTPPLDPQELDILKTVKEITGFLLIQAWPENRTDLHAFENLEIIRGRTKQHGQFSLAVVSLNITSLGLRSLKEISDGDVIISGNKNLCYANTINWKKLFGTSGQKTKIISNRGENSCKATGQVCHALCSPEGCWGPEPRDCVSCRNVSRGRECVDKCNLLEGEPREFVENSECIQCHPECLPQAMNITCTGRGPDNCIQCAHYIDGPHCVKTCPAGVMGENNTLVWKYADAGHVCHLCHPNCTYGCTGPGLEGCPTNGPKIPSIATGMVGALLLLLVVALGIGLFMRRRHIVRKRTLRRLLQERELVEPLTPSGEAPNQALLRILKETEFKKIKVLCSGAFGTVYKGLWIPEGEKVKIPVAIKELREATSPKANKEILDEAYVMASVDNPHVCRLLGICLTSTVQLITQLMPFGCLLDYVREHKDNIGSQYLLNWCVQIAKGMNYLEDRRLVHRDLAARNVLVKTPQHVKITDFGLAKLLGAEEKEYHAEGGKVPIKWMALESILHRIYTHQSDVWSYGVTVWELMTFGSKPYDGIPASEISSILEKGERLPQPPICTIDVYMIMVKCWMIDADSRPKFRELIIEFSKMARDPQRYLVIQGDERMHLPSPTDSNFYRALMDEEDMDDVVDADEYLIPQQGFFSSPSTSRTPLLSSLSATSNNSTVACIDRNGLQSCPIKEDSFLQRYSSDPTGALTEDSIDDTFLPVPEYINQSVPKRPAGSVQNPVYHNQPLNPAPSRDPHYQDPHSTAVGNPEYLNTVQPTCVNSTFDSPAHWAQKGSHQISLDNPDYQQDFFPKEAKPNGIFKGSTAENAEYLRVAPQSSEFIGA
T8 sequence (P9WI81 whole entry): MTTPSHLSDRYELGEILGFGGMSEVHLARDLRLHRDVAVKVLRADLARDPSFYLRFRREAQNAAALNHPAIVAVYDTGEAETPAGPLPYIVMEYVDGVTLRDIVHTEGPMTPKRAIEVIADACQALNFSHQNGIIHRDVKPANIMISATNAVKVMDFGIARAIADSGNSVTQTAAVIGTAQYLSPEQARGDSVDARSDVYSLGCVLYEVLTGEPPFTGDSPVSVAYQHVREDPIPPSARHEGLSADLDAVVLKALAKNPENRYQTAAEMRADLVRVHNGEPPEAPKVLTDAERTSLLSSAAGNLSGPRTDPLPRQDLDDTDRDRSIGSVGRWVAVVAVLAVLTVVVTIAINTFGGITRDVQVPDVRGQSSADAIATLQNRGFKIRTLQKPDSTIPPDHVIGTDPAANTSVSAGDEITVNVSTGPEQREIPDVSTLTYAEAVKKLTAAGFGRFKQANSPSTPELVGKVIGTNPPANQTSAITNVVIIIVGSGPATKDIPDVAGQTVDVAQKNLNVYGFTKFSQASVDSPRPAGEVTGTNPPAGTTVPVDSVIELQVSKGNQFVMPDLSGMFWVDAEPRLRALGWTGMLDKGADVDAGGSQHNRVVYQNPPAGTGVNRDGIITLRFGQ

With Cc1ccc(C2=Nc3cccnc3S(=O)(=O)c3ccccc32)cc1 [TBPT, 6-(p-tolyl)benzo[f] pyrido[2,3-b][1,4] thiazepine 11,11-dioxide] the “Resistance Folds” value (H460TaxR; EC50 in H460TaxR cells divided by EC50 in H460 cells) was 1.3, the EC50 (H460TaxR; 72 h, H460TaxR cells) was under 0.5 µM and the EC50 (H460TaxR; H460TaxR(+Rev), Reversan (P-gp inhibitor)) was 0.61 ± 0.26 µM. The EC50 (H460) was 0.45 ± 0.19 µM, the EC50 (H460; Homo sapiens, NCI-H460, 72 h) was under 0.5 µM and the remaining binding at 5 µM (EGFR(G719C); 5 μM) was 73%. For the same compound, the remaining binding at 10 µM (EGFR(G719C); 10 μM) was 100%, the remaining binding at 5 µM (KIT(V559D); 5 μM) was 72% and the remaining binding at 10 µM (KIT(V559D); 10 μM) was 91%. The remaining binding at 5 µM (LRRK2(G2019S); 5 μM) was 86%, the remaining binding at 10 µM (LRRK2(G2019S); 10 μM) was 99% and the “toxicity to normal tissues (blood biochemical and hematological analyses, body weight, relative organ weights)” value [1] was “did not exhibit evident toxicity to normal tissues”. The remaining binding at 5 µM (RET(M918T); 5 μM) was 99%, the remaining binding at 10 µM (RET(M918T); 10 μM) was 99% and the “activities of caspases 8, 9 and 3/7” value (caspases 8, 9 and 3/7) was “activated caspases 8, 9 and 3/7 in a time-dependent manner”. The remaining binding at 5 µM ([2]; 5 μM) was 78%, the remaining binding at 10 µM ([2]; 10 μM) was 81% and the remaining binding at 5 µM (RET(V804L); 5 μM) was 100%. The remaining binding at 10 µM (RET(V804L); 10 μM) was 86%, the “histopathological examination of the major organs” value [3] was “No pathological changes were observed” and the remaining binding at 5 µM (EGFR(T790M); 5 μM) was 100%. The remaining binding at 10 µM (EGFR(T790M); 10 μM) was 96%, the “% Ctrl” value (EGFR(L747-T751del,Sins); 5 μM) was 88% and the “% Ctrl” value (EGFR(L747-T751del,Sins); 10 μM) was 98%. The remaining binding at 5 µM (PKNB(M.tuberculosis); 5 μM) was 100%, the remaining binding at 10 µM (PKNB(M.tuberculosis); 10 μM) was 85% and the “% Ctrl” value (FLT3(ITD); 5 μM) was 95%. For the same compound, the “% Ctrl” value (FLT3(ITD); 10 μM) was 100%.

Source: publication PMC4823954, “From fighting depression to conquering tumors: a novel tricyclic thiazepine compound as a tubulin polymerization inhibitor” (Cell Death & Disease, 2016)
